In patent US9801840B1, “Pharmaceutical composition and use thereof” (priority 2016, dated 2017):

How the values were obtained:
Cytotoxicity assay (MTT) = assay type: cell-based; settings: human, Huh7 cells (HCC cell line), Huh7, 24 hours
Method: (§1) The HCC cell lines: Huh7, HepG2 and Hep3B were obtained from Japanese Collection of Research Bioresources (National Institute of Health Sciences; Japan, JCRB) and maintained in Dulbecco's Modified Eagle's Medium-High Glucose (Invitrogen) medium with 10% fetal bovine serum (FBS), 2 mM L-glutamine (Invitrogen), and 100 μg/mL penicillin-streptomycin (Invitrogen). Cells were cultured in a humidified atmosphere in 5% CO2 at 37° C. A well-known cytotoxicity assays in the art, for example, the assay described by Wang et al. can be performed to study the cytotoxicity of the pharmaceutical composition provided by the present invention. […] The number of viable cells was determined by MTT assay.

Hep3B cell lines [1] = assay: Cytotoxicity assay (MTT); assay type: cell-based; settings: 24 hours
Method: as §1

HepG2 cell lines [2] = assay: Cytotoxicity assay (MTT); assay type: cell-based; settings: HepG2, 24 hours
Method: as §1

Hep3B cell lines [3] = assay: Transwell migration assay; assay type: cell-based; settings: 1-16 μM, 16 hours
Method: (§2) Then, the cells were seeded into Transwell inserts (8 μm pore; BD Biosciences). The mediums were incubated for 16 hours, and the migrated cells were fixed, stained with crystal violet, and quantified.
(§3) Except for the compound represented by formula (1), the pharmaceutical composition can further comprises at least one known anticancer agent. […] The software was used to estimate the combination index (CI) and Fa (fraction affected by drugs) and to interpret the combined effect of drugs. CI<1, CI=1, and CI>1 respectively indicate synergistic, additive, and antagonistic effects.

HepG2 cell lines [4] = assay: Transwell migration assay; assay type: cell-based; settings: HepG2, 1-16 μM, 16 hours
Method: as §2, §3

Huh7 cell lines [5] = assay: Transwell migration assay; assay type: cell-based
Method: as §2, §3

VEGFR2 = assay: Immunoprecipitation and Western blot analysis, Huh7 cell lines; assay type: cell-based; settings: Huh7, 15 mins treatment, vs control
Method: The lysates were then sonicated and centrifuged. The supernatant was kept and incubated with anti-VEGFR1 antibody, anti-VEGFR2 antibody, and anti-VEGFR3 antibody (Santa Cruz Biotechnology, Inc.) overnight at 4° C. The immune-complexes were washed and eluted, and then analyzed by Western blotting.

Src = assay: as above; assay type: cell-based; settings: Huh7, 15 mins treatment
FAK (Tyr397) = assay: as above; assay type: cell-based; settings: Huh7, 15 mins treatment
[6] = target: T1, VEGFR2 (kinase insert domain receptor, KDR) (Homo sapiens, UniProt P35968); assay: ADP-Glo kinase activity assay; assay type: biochemical; settings: 10 μM ATP, read-out: concentration inhibiting VEGFR2 activity by 50%
T1 construct: purchased Promega V2681
Method: Briefly, CA was first diluted with a kinase reaction buffer solution at a 1:2 dilution ratio. Three nanograms of kinase insert domain receptor (KDR, #V2681, Promega) were added and incubated for 10 mins. Then, 0.1 μg/μL substrate and 10 μM ATP were added and incubated for 1 hour at room temperature. Next, 25 μL of ADP-Glo reagent was added to the mixture and incubated at room temperature for 40 mins. Finally, 50 μL of a kinase detection reagent was added to introduce luciferase and samples were measured.

cdc42 = assay: Rho GTPase activity assay (GST pull-down, Western blot), Huh7 cell lines; assay type: cell-based; settings: Huh7, 6 hours
Method: Huh7 cell lines were cultured by the method described in Example 2 and treated with 0.1% DMSO (control) or CA for 6 hours and then collected. After the Huh7 cell lines were lysed, the cell lysates (500 μg) were combined with purified GST fusion protein which has conjugated with Rac1, RhoA, or cdc42 binding domain (PAK-PBD for Rac1 and cdc42, Raf-RBD for RhoA) and incubated at 4° C. overnight. The immune-complex was precipitated and then centrifuged at 14,000 rpm for 30 mins. The samples were washed with RIPA buffer solution, boiled with SDS sample buffer solution, and analyzed by Western blot analysis.

Huh7 cell lines [7] = assay: G-actin/F-actin activity assay; assay type: cell-based; settings: Huh7, 6 hours, vs control
Method: Actin activity assay can be conducted by known methods, for example, the method described in Shum et al. (2011). Briefly, Huh7 cell lines were cultured by the method described in Example 2 and treated with 0.1% DMSO (control) or CA for 6 hours and incubated in stabilizing buffer (1% Triton X-100, 1 μg phalloidin, and protease inhibitor cocktail) at room temperature for 5 mins. Cell lysates were collected, followed by centrifugation at 100,000×g at 37° C. for 1 hour. The supernatant was removed and saved as the G-actin fraction. The pellet was washed twice with PBS and dissolved in dissolving buffer solution (1% Triton X-100, 2% SDS, and protease inhibitor cocktail) by sonication, the mixture was put on ice for 1 h, and saved as the F-actin fraction.

Huh7 cell lines [8] = assay: Confocal microscopy analysis of p-FAK (Tyr397) and F-actin; assay type: cell-based; settings: Huh7, 6 hour
Method: Huh7 cell lines cultured by the method described in Example 2 were seeded on a 22×22 cover slip and treated with 0.1% DMSO (control) or CA for 6 hour. The cells were washed, fixed, and permeabilized with 0.25% Triton X-100 for 10 mins. Next, the cover slips were incubated with p-FAK (Tyr397) primary antibody overnight, and then stained with Alexa488 (anti-rabbit) and Alexa568-phallodin (20 mU/mL) for 1 hour in darkness. Finally, the samples were counterstained for nuclei with DAPI (10 ng/mL) for 10 mins. The images were captured and analyzed using the Leica TCS SP5 Spectral Confocal System. The actin filament intensity was measured by ImageJ (NIH) and calculated by the following formula described by Bennett et al. (2013): Corrected total cell fluorescence (CTCF)=Integrated Density−(Area of selected cell×Mean fluorescence of background readings).

Huh7 cell lines [9] = assay: Antitumor response in vivo, Huh7 xenograft; set-up: species or system mice; settings: 5 mg/kg/day intraperitoneal
Method: All animal experiments were conducted according to the guidelines approved by the Institutional Animal Care and Use Committees of the College of Medicine, National Taiwan University and National Taiwan Normal University. The study was approved by the Animal Care and Use Committees of the College of Medicine, National Taiwan University and National Taiwan Normal University. Male NOD/SCID mice (4-6 weeks old) (obtained from BioLASCO Taiwan Co., Ltd) were housed into individually-ventilated cages with free access to food and drinking water. […] The tumor volume was calculated by the following equation: tumor volume(mm^3)=(length [mm])×(width [mm])^2×0.5.

p-FAK (Tyr397) = assay: Immunohistochemistry of excised xenograft tumors; assay type: in vivo; settings: HCC xenograft mice, CA 5 mg/kg/day
Source text: (§4) Tumor samples obtained from experiment 4-1 were fixed in 10% […], embedded in paraffin, and sectioned. The tissue sections were then subjected to immunohistochemical staining with the Novolink Polymer Detection System (Leica Biosystems). The sections were stained for p-VEGFR2 (Tyr951, Cell Signaling Technology), Ki-67 and p-FAK (Tyr397) (Santa Cruz Biotechnology), and the nuclei were counterstained with hematoxylin.

p-VEGFR2 (Tyr951) = assay: Immunohistochemistry of excised xenograft tumors; assay type: in vivo; settings: HCC xenograft mice, CA 5 mg/kg/day
Source text: as §4

FAK = settings: xenograft model
Method: To study the combinatorial effect of CA and sorafenib, Huh7 cell lines (5×10^6 cells) were suspended in 100 μL of Opti-MEM with matrigel-matrix, and injected subcutaneously into the flanks of each mouse. After one week, the mice were treated with 50 μL DMSO (control) and combined compounds by intraperitoneal injection (n=5 for each group) for 20 days.
At the end of the experiment, the mice were sacrificed. The tumors were excised, weighed, and fixed for further studies.

T1 sequence (P35968 20-1356): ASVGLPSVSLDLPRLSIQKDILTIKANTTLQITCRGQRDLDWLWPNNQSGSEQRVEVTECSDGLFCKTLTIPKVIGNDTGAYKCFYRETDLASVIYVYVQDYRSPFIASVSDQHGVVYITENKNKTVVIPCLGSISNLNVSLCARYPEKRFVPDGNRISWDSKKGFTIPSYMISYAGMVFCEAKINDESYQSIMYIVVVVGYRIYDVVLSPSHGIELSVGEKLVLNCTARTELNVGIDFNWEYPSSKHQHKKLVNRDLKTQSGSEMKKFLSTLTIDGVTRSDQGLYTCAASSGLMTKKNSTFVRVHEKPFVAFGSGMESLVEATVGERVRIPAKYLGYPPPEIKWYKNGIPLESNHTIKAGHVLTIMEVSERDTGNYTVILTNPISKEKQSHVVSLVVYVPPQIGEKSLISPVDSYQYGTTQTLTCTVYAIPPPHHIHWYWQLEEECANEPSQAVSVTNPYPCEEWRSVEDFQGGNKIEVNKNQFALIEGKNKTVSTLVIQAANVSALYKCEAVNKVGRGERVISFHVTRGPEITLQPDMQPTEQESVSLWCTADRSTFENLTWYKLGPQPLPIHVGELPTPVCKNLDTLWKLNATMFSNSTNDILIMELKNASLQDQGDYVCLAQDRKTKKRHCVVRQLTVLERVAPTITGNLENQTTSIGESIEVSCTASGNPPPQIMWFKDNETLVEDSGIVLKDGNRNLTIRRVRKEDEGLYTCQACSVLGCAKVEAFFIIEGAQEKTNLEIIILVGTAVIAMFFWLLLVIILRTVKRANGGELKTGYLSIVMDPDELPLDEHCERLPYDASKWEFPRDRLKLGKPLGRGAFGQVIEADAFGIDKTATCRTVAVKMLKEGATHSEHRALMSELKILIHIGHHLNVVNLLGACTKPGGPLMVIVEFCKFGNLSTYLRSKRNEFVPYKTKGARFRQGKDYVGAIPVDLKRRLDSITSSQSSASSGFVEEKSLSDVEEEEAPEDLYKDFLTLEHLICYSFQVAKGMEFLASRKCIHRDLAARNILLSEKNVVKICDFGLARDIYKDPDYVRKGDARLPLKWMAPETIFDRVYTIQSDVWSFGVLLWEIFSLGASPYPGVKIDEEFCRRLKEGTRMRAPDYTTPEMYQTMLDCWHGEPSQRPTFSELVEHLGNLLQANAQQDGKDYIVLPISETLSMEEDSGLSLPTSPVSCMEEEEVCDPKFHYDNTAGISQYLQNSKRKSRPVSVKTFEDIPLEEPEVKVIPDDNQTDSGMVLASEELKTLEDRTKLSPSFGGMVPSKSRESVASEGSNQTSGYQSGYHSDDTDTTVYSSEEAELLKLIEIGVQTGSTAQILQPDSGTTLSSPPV

Structure (SMILES): C[C@H]1[C@H](C)CC[C@]2(C(=O)O)CC[C@]3(C)C(=CC[C@@H]4[C@@]5(C)C[C@@H](O)[C@H](O)C(C)(C)[C@@H]5CC[C@]43C)[C@H]12 [CA, corosolic acid]
- IC50 at 24 h (Cytotoxicity assay (MTT)): 50000 nM
- cytotoxicity (Hep3B cell lines [1]): lower cytotoxicity
- cytotoxicity (HepG2 cell lines [2]): lower cytotoxicity
- inhibition of migration (Hep3B cell lines [3]): effectively inhibited the migration
- inhibition of migration (HepG2 cell lines [4]): effectively inhibited the migration
- IC50 cytotoxicity/IC50 migration (Huh7 cell lines [5]; HCC cell lines): ≥ 20
- inhibition of migration (Huh7 cell lines [5]; Huh7, 1-16 μM, 16 hours): effectively inhibited the migration
- phosphorylation level of VEGFR2 (VEGFR2): lower
- phosphorylation level of Src (Src): down-regulated
- phosphorylation level of FAK (Tyr397) (FAK (Tyr397)): down-regulated
- IC50 [6]: ~950 nM
- IC50 (cdc42; Homo sapiens, Huh-7, read-out: concentration reducing the activity of cdc42 by 50%): 2000 nM
- activated cdc42 (cdc42): significantly down-regulated
- ratio of F-actin/G-actin (polymer/monomer) (Huh7 cell lines [7]): reduces
- co-localization of phosphorylation of FAK (Tyr397) and F-actin on the filopodium (Huh7 cell lines [8]): decreases
- reduction in tumor mass as compared with the control group (Huh7 cell lines [9]; 21 days): 85%
- volumes of the tumor (Huh7 cell lines [9]; after 21-day treatment): 63±19 mm^3
- phosphorylation of FAK in tumor (immunohistochemistry) (p-FAK (Tyr397)): reduced phosphorylation of both VEGFR2 and FAK significantly
- phosphorylation of VEGFR2 in tumor (immunohistochemistry) (p-VEGFR2 (Tyr951)): reduced phosphorylation of both VEGFR2 and FAK significantly

Structure (SMILES): CNC(=O)c1cc(Oc2ccc(NC(=O)Nc3ccc(Cl)c(C(F)(F)F)c3)cc2)ccn1 [sorafenib]
- phosphorylation level / activation of FAK kinase in the tumor in the mice (FAK): didn't show any inhibitory effect

Structure (SMILES): C[C@H]1[C@H](C)CC[C@]2(C(=O)O)CC[C@]3(C)C(=CC[C@@H]4[C@@]5(C)CC[C@H](O)C(C)(C)[C@@H]5CC[C@]43C)[C@H]12 [ursolic acid, 3β-hydroxyurs-12-ursen-28-ic acid, reference compound]
- inhibitory activity to cell migration (FIG. 2D comparison) (Huh7 cell lines [5]; Huh7, CA vs sorafenib vs ursolic acid): did not show significant inhibitory activity
